The target in experiment [1] is Tyrosine-protein kinase Lyn (Homo sapiens) (UniProt P07948). The experiment can be described thus: Inhibition of LYN (unknown origin) assessed as residual activity at 1000 nM by KINOMEscan analysis relative to control.
Experiment [2] addresses Cyclin-dependent kinase 2 homolog (Plasmodium falciparum (isolate K1 / Thailand)) (UniProt Q07785). The experiment in a line: Inhibition of Plasmodium falciparum PK5 assessed as residual activity at 1000 nM by KINOMEscan analysis relative to control.
The target of experiment [3] is Calcium/calmodulin-dependent protein kinase type II subunit delta (Homo sapiens) (UniProt Q13557). The experiment can be described thus: Inhibition of CAMK2D (unknown origin) assessed as residual activity at 1000 nM by KINOMEscan analysis relative to control.
Sequence of Calcium/calmodulin-dependent protein kinase type II subunit delta (Homo sapiens) (Q13557 whole entry): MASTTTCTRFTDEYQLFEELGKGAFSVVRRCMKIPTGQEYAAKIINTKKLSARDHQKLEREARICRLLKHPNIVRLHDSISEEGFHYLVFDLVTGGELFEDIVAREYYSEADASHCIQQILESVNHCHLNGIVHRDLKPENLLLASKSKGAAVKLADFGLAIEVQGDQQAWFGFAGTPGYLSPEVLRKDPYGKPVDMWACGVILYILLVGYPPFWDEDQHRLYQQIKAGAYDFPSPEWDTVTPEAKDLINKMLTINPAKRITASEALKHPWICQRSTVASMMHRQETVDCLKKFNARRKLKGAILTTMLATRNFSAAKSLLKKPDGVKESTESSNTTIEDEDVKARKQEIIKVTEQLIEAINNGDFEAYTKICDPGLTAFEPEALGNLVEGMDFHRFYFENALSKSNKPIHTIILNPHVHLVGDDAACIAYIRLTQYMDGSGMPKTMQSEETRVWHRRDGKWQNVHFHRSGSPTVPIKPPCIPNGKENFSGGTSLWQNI
In experiment [4] the target is Mitogen-activated protein kinase 11 (Homo sapiens) (UniProt Q15759). The experiment can be described thus: Inhibition of p38-beta (unknown origin) assessed as residual activity at 1000 nM by KINOMEscan analysis relative to control.
Sequence of Mitogen-activated protein kinase 11 (Homo sapiens) (Q15759 whole entry): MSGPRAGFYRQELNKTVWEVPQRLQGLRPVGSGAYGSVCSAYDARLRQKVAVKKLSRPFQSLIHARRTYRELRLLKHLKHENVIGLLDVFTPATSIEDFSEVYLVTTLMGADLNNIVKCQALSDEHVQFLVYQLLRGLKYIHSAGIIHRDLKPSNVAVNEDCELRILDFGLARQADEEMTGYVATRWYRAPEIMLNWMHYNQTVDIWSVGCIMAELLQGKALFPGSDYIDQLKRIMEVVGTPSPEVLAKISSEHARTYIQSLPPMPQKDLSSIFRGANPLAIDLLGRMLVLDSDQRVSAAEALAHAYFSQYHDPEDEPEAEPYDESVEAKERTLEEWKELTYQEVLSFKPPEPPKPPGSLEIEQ
Experiment [5] addresses Fibroblast growth factor receptor 2 (Homo sapiens) (UniProt P21802). The experiment can be described thus: Inhibition of FGFR2 (unknown origin) assessed as residual activity at 1000 nM by KINOMEscan analysis relative to control.
For experiment [6], the target named is Serine/threonine-protein kinase SIK2 (Homo sapiens) (UniProt Q9H0K1). The experiment can be described thus: Inhibition of SIK2 (unknown origin) assessed as residual activity at 1000 nM by KINOMEscan analysis relative to control.
Experiment [7] addresses 5'-AMP-activated protein kinase catalytic subunit alpha-1 (Homo sapiens) (UniProt Q13131). The experiment can be described thus: Inhibition of AMPK-alpha1 (unknown origin) assessed as residual activity at 1000 nM by KINOMEscan analysis relative to control.
Experiment [8] has as its system Epidermal growth factor receptor (Homo sapiens), P00533 [UNDEFINED MUTATION]. The experiment can be described thus: Inhibition of EGFR E746-A750del mutant (unknown origin) assessed as residual activity at 1000 nM by KINOMEscan analysis relative to control.
For experiment [9], the target named is Serine/threonine-protein kinase 32C (Homo sapiens) (UniProt Q86UX6). The experiment in a line: Inhibition of YANK3 (unknown origin) assessed as residual activity at 1000 nM by KINOMEscan analysis relative to control.
Sequence of Serine/threonine-protein kinase 32C (Homo sapiens) (Q86UX6 whole entry, canonical isoform): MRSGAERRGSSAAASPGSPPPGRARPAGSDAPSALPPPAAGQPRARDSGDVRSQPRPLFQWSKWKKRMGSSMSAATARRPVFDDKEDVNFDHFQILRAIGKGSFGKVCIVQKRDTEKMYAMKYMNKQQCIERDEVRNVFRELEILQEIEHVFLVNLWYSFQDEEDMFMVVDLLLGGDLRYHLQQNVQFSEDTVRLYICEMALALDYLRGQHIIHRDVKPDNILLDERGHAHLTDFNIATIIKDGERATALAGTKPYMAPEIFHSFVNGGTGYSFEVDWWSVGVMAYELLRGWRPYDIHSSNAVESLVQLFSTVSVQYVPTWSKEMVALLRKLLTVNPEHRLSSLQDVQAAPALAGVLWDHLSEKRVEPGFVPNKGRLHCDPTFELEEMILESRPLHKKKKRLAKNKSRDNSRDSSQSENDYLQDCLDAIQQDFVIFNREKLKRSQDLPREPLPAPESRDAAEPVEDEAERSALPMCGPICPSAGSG
For experiment [10], the target named is Phosphatidylinositol 4,5-bisphosphate 3-kinase catalytic subunit alpha isoform (Homo sapiens) (UniProt P42336). The experiment can be described thus: Inhibition of PIK3CA (unknown origin) assessed as residual activity at 1000 nM by KINOMEscan analysis relative to control.
Sequence of Phosphatidylinositol 4,5-bisphosphate 3-kinase catalytic subunit alpha isoform (Homo sapiens) (P42336 whole entry, the tested form may be a part, canonical isoform): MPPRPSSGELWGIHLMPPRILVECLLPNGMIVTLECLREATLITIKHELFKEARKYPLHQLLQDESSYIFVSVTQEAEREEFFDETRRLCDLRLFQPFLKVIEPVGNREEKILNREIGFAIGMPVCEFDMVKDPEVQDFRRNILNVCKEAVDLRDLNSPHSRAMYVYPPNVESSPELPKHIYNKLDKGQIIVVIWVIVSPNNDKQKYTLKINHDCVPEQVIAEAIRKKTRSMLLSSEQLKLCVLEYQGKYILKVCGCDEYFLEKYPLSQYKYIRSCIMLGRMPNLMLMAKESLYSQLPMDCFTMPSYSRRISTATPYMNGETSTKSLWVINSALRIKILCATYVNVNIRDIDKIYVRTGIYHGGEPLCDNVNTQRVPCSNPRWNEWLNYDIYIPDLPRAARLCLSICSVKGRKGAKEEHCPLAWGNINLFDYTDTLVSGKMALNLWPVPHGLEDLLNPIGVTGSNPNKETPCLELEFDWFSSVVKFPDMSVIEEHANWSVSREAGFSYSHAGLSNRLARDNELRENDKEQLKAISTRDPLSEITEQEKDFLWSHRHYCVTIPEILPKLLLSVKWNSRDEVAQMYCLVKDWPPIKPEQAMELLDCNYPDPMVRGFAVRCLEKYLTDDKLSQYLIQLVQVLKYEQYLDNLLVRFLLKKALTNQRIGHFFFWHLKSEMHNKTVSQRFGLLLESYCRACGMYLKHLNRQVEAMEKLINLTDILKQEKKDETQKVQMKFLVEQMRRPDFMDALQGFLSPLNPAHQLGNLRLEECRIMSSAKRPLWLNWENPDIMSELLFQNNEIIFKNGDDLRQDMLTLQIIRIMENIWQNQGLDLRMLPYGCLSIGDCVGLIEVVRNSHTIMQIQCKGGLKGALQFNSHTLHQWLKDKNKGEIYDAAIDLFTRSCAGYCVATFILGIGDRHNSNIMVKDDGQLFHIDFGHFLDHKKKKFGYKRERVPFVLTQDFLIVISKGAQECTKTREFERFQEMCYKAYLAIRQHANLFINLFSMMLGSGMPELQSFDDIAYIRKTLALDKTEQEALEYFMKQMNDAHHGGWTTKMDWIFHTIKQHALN
The target of experiment [11] is T1, Phosphatidylinositol 3-kinase C2 domain-containing subunit gamma (Homo sapiens) (UniProt O75747).
T1 sequence (whole entry): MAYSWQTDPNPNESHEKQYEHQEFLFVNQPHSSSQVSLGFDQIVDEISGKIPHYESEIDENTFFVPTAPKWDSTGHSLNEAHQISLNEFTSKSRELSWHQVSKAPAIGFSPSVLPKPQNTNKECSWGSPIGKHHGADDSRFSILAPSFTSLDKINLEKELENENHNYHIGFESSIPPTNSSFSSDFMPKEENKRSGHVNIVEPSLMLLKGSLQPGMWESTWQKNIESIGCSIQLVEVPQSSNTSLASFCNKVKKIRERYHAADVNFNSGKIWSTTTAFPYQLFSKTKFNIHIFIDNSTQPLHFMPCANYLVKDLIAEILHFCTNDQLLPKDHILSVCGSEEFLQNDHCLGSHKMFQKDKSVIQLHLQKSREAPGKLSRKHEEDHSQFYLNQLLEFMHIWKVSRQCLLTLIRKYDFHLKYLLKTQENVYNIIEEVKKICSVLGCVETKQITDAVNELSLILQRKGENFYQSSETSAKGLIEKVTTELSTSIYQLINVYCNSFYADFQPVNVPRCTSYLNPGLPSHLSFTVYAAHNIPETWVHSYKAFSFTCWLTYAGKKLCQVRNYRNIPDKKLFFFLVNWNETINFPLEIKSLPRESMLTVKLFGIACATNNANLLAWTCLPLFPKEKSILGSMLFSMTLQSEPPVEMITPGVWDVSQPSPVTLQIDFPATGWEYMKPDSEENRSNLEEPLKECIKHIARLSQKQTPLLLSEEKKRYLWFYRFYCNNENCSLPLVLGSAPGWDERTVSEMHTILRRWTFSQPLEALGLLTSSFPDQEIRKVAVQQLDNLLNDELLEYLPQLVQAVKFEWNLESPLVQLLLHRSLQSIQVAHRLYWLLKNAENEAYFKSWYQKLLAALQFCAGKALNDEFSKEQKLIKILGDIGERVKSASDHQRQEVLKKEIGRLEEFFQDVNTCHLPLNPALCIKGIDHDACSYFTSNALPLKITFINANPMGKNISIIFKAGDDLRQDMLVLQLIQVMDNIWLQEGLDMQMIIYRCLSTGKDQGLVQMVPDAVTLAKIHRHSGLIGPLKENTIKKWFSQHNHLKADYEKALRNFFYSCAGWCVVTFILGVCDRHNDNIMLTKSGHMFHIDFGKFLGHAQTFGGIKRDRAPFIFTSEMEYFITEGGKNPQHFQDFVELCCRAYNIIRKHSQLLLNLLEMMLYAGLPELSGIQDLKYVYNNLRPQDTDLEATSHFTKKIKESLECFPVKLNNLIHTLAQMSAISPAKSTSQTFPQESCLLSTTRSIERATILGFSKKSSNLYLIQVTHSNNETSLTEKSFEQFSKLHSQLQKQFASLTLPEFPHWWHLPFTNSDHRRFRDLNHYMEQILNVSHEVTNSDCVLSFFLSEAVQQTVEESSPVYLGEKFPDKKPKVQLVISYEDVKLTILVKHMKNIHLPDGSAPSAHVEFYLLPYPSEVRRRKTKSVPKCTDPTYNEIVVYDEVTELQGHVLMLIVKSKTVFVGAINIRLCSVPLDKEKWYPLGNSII
The experiment in a line: Inhibition of PIK3C2G (unknown origin) assessed as residual activity at 1000 nM by KINOMEscan analysis relative to control.

Sequence of Fibroblast growth factor receptor 2 (Homo sapiens) (P21802 22-821 limits assumed): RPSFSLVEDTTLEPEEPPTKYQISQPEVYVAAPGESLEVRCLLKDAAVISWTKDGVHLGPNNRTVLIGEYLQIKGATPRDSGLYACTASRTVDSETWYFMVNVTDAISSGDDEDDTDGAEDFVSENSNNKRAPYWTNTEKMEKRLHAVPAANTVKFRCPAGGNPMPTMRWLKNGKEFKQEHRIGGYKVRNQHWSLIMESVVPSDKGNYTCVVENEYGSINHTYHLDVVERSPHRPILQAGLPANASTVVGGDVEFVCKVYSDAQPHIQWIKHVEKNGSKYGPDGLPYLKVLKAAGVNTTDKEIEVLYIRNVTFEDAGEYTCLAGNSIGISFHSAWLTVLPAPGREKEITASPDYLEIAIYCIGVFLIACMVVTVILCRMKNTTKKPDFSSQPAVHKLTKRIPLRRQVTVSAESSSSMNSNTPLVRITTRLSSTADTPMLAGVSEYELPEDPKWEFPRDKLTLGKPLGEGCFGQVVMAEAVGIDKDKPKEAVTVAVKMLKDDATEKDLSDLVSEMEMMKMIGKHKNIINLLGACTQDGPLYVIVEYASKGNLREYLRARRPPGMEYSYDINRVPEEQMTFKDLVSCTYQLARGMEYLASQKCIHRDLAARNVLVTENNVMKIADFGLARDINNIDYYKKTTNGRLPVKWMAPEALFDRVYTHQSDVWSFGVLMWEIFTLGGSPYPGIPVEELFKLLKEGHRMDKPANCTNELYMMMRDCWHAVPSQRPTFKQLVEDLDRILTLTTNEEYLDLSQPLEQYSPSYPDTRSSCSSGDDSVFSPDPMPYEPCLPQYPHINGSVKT
Sequence of Epidermal growth factor receptor (Homo sapiens), P00533 [UNDEFINED MUTATION] (P00533 whole entry, looked up, stated change not applied): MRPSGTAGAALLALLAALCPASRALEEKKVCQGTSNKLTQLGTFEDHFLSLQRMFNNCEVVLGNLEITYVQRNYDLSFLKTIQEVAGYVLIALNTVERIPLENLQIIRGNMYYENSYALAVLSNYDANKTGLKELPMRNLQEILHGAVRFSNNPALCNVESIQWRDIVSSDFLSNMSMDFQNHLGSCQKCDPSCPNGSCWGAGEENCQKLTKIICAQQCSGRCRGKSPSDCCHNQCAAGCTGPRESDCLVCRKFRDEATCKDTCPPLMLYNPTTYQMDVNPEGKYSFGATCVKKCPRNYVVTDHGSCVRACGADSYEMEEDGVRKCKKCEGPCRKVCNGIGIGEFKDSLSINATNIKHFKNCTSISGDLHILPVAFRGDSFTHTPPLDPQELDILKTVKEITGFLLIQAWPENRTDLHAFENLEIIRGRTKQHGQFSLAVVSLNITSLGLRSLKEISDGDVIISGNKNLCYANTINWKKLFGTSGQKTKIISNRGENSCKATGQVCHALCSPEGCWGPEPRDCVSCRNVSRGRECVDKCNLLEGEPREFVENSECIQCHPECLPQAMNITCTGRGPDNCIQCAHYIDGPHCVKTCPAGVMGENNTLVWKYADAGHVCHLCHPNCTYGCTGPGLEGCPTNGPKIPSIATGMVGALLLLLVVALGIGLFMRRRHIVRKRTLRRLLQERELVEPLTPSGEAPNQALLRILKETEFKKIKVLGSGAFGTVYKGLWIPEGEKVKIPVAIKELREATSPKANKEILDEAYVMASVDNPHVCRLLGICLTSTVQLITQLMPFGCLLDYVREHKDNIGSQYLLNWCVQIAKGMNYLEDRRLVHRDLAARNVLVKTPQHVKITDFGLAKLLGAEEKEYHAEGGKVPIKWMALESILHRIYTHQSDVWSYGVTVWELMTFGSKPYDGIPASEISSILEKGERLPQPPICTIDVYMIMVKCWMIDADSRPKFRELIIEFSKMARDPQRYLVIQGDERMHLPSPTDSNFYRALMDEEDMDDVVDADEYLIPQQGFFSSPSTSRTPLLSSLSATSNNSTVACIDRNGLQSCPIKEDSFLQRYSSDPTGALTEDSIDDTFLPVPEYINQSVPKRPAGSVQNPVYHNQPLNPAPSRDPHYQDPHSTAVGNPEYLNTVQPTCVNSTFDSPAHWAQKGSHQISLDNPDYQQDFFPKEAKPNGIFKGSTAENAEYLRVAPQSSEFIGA
Sequence of 5'-AMP-activated protein kinase catalytic subunit alpha-1 (Homo sapiens) (Q13131 whole entry, looked up): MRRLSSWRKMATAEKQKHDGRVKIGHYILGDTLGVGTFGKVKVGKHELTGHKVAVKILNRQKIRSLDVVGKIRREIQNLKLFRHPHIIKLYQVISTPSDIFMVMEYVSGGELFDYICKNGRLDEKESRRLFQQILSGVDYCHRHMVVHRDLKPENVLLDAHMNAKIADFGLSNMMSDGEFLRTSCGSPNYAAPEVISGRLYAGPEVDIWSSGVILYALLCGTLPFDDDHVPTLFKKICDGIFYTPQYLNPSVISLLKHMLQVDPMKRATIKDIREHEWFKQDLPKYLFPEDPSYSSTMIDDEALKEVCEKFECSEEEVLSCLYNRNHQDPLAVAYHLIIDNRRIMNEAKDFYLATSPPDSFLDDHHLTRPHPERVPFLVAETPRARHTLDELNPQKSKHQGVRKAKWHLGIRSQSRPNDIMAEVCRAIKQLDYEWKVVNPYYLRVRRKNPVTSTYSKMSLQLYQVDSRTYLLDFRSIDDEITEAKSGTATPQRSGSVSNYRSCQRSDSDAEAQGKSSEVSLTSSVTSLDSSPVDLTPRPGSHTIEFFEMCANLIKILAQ

Take `COc1cc2ncnc(N[C@H](C)c3cccc4ccccc34)c2cc1OC`: the Activity stood at 91% in experiment [1]; 100% in [2]; 100% in [3]; 96% in [4]; 100% in experiment [5]; 100% in [6]. For the same molecule, the Activity was determined as 100% in [7]; 5.9% in experiment [8]; 100% in experiment [9]; 73% in [10]; 35% in experiment [11].

On to `COc1cc2nc(C)nc(N[C@H](C)c3cccc(-c4cn[nH]c4)c3)c2cc1OC`, for which the Activity in [1] is 100%; in [2] it was 98%; in [3], 100%; in [4], 97%; in experiment [5], 67%; in [6], 89%. The Activity came to 82% in [7]; 100% in experiment [8]; 98% in experiment [9]; 96% in experiment [10]; 87% in experiment [11].

The values are drawn from ChEMBL document CHEMBL5678818, “Discovery of potent SOS1 inhibitors that block RAS activation via disruption of the RAS-SOS1 interaction” (Proc Natl Acad Sci U S A, 2019).
